Results taken from patent EP2949220A1, “Nutraceutic supplement for bees families and process for its administration” (SC Teso Spec SRL, priority 2014, dated 2015).

Columns and labels:
[1] = test system: Lactobacillus kunkeei DSM 12361; experiment: Growth of fructophilic lactobacteria on FYP broth with glucose-fructose syrup; assay type: cell-based; conditions: FYP medium with glucose-fructose syrup; 21.5 mg/l maltol, 2.05 mg/l p-coumaric acid, 2.25 mg/l caffeic acid where present
Experimental: Optimization of the ratio of hydroxycinnamic acids, p-coumaric and caffeic, and maltol, was obtained by using experiments designed according to response surface technique, using the Software Design-Expert® v. 9.0 (Stat-Ease, Minneapolis, MN, USA). Two bioassays were used, wherein the effect of different combinations of maltol and hydroxycinnamic acids, p-coumaric and caffeic, were determined, on fructophilic lactobacteria growth and on oxidative stress and on the induction of CYP9Q, enzyme from cytochrome P450 monooxigenase class, with key role in defense systems of bees (Mao et al., 2013, PNAS, 110: 8842-8846). […] The ratio 4.1 parts p-coumaric acid, 4.5 parts caffeic acid and 43 parts maltol, determined as being optimal in terms L. kunkeei development enhancement, was re-tested in laboratory conditions, using 400 g/l glucose-fructose syrup (Isosugar 031™, Tate and Lyle, London, United Kingdom, 74.8% dry matter, 50.2% of which is fructose), instead of 300 g/l of fructose on FYP broth. […]

[2] = test system: lipid peroxides (as malondialdehide); experiment: Oxidative stress in midguts of bees fed bee candy (lipid peroxides as MDA, thiobarbituric acid); assay type: in vivo, honey bees; conditions: 3 days, control = 100%, 4.3 µg/g maltol, 0.41 µg/g p-coumaric acid, 0.45 µg/g caffeic acid where present (mixture row prints µg/l)
Experimental: (§1) Optimization of the ratio of hydroxycinnamic acids, p-coumaric and caffeic, and maltol, was obtained by using experiments designed according to response surface technique, using the Software Design-Expert® v. 9.0 (Stat-Ease, Minneapolis, MN, USA). Two bioassays were used, wherein the effect of different combinations of maltol and hydroxycinnamic acids, p-coumaric and caffeic, were determined, on fructophilic lactobacteria growth and on oxidative stress and on the induction of CYP9Q, enzyme from cytochrome P450 monooxigenase class, with key role in defense systems of bees (Mao et al., 2013, PNAS, 110: 8842-8846). […] After three days bees midguts were taken by dissection, frozen in liquid nitrogen and stored at -80 ° C, to extract total RNA for quantitative RT-PCR analysis of CYP9Q3 expression and for the determination of lipid peroxides (as malondialdehide) as markers of oxidative stress. RNA was extracted from frozen abdomens by TRIzol method (Invitrogen, Thermo Fisher Scientific, Waltham, MA, USA), treated with DNAse (Ambion® protocol, Thermo Fisher Scientific) and used for the quantitative analysis of the expression CYP9Q by RT-PCR, as described by Mao et al., 2011 (PNAS, 108, 12657-12662). Lipid peroxides were determined as malondialdehid ? , with tiobarbituric acid (Rael et al., 2004, J. Biochem. Mol. Biol, 3, 749-752).

CYP9Q = CYP9Q induction in bees fed bee candy (quantitative RT-PCR); assay type: in vivo, honey bees; conditions: 3 days, control = 100%, 4.3 µg/g maltol, 0.41 µg/g p-coumaric acid, 0.45 µg/g caffeic acid where present (mixture row prints µg/l)
Experimental: as §1

Cc1occc(=O)c1O [maltol, 3-Hydroxy-2-methyl-4H-piran-4-one]
Culture development (% control) [1]: 76.8 % control
Lactic acid production (% control) [1]: 67,9 % control
Oxidative stress MDA (%) [2]: 123,7%
Inducing CYP9Q (%) (CYP9Q): 102.9%
